Residues, ends and D or L forms follow the SMILES beside them. *: point of attachment. Cbz = O=C(OCc1ccccc1)*

The values below come from US20090130763A1, “Method of Controlling Degradation of Protein by Tetracycline Antibiotic” (priority 2005, published 2009).

The subject of the test is proteasome. The test is described as follows: Incubation of TetR-EGFP-expressed cells with proteasome inhibitor, fluorescence by flow cytometer. Particulars: variant TetR-EGFP-expressed cells, 100 μg/ml, 12 hours (FIG. 1C).

Description: The cells were treated with trypsin and then recovered. Fluorescence-positive cell rates and the intensity of fluorescence per cell were analyzed by a flow cytometer (BD, FACSCalibur).
These cells were incubated for 12 hours in the presence of 100 μg/ml of proteasome inhibitor MG132.

For the compound `CC(C)C[C@@H](C=O)NC(=O)[C@H](CC(C)C)NC(=O)[C@H](CC(C)C)NC(=O)OCc1ccccc1` [MG132] (Cbz-Leu-Leu-Leu-aldehyde), the change in fluorescence result was “marked increase”.
